According to PubChem BioAssay AID1963834 (Molecular Pharmacology Branch, DTP, NCI, 2024):

Test system: 873145-292-R-J1-PDC complex spheroid viability
Assay: Anticancer human tumor 873145-292-R-J1-PDC patient-derived renal clear cell carcinoma cell line growth inhibition [POLQ]
Conditions: for IC50: curve of first compound; for viability, T/C: stronger effect = lower value
Procedure: Multicellular complex tumor spheroid response to Polymerase (POL) inhibitors (novobiocin, ART-558, RP6685) in combination with a variety of drugs and investigational agents in selected tumor cell lines
The POL inhibitors (novobiocin, ART-558, and RP6685) were evaluated both individually and in combination with standard of care and investigational anticancer small molecules within a complex spheroid model of solid tumors. . Complex spheroids include a stromal component modeled by human endothelial cells (HUVEC) and fibroblasts modeled by human mesenchymal stem cells (MSCs). The concentration ranges selected for each drug and investigational agent were based upon clinically achievable concentrations if the clinical Cmax of the agent was known.
Compounds. The drugs and investigational agents: novobiocin (NSC847541), ART-558 (NSC835418), RP-6685 (NSC848927), peposertib (NSC802822), ceralasertib (NSC780249), elimusertib (NSC800525), camonsertib (NSC841442), AZD-1390 (NSC803789), olaparib (NSC753686), talazoparib (NSC767125), rucaparib (NSC756644), sotorasib (NSC818433), MRTX-1133 (NSC836407), SN-38 (NSC673596), topotecan (NSC609699), epotoside (NSC141540), doxorubicin (NSC123127), gemcitabine (NSC613327), 5-fluorouracil (NSC19893), paclitaxel (NSC125973), vemurafenib (NSC761431), MSA-2 (NSC828583), SN-011 (NSC837082), adavosertib (NSC754352), prexasertib (NSC758257), carboplatin (NSC241240) and oxaliplatin (NSC266046), were obtained from the National Cancer Institute (NCI) Developmental Therapeutics Program Chemical Repository (21). The FDA-approved anticancer drug set is available from the Developmental Therapeutics Program at https://dtp.cancer.gov/organization/dscb/obtaining/. […] The stock solutions were prepared in dimethyl sulfoxide (DMSO, Sigma-Aldrich, St. Louis, MO, cat. D2650), except for the platinum compounds which were prepared in saline (Quality Biological, Gaithersburg, MD, cat. 114-055-101), at 800-fold the tested concentration and stored at -70 degrees C prior to their use. All drugs and investigational agents were tested over a range starting from a high concentration at or near the clinical Cmax and decreasing in half-log increments. If the clinical Cmax for an agent had not been determined, the highest concentration tested was 10 microM, except for SN-38, which was tested at a high concentration of 1 microM.
Cell Culture. All cells were maintained in an incubator at 37 degrees C and 5% CO2 with 95% humidity. The PDC lines were cultured according to standard operating procedures established by the NCI PDMR (https://pdmr.cancer.gov). Table 3 of the manuscript, lists the cell lines along with the number of the three cell types plated to form the mct-spheroids and media for tumor cell growth. After thawing, all PDC lines, except 997537-175-T-J1-PDC and 415267-285-R-J2-PDC, were cultured in Matrigel-coated flasks prepared with a working solution of 1X Ham's F-12 nutrient mix, without supplementation (Thermo Fisher Scientific, cat. 11765054), 100 U/mL penicillin-streptomycin (Thermo Fisher Scientific, cat. 15140122), and 2.5% Matrigel (Corning Inc., Corning, NY, cat. 354248) for the first three passages. The two PDC lines 997537-175-T-J1-PDC and 415267-285-R-J2-PDC were cultured on uncoated flasks. The 857933-349-R-J2-PDC line was cultured in 6C/Colon 1B media containing advanced DMEM/F-12 (Thermo Fisher Scientific, cat. 12634028), 10 mM HEPES (Thermo Fisher Scientific, cat. 15630080), 1X GlutaMAX supplement (Thermo Fisher Scientific, cat. 35050061), 0.1 mg/mL primocin (InvivoGen, San Diego, CA, cat. ant-pm-2), 10% defined fetal bovine serum, heat inactivated (HyClone Laboratories Inc., Logan, UT, cat. SH30070.03HI), 50% L-WRN conditioned media (ATCC, cat. CRL-3276), 1.25 mM N-Acetyl-L-cysteine (Sigma-Aldrich, cat. A9165), 10 mM nicotinamide (Sigma-Aldrich, cat. N0636), 1X B-27 supplement (Thermo Fisher Scientific, cat. 17504044), 1X N-2 supplement (Thermo Fisher Scientific, cat. […]

[1] = second compound 0.0316 µM, first compound 0.0316 µM
[2] = second compound 0.0316 µM, first compound 0.1 µM
[3] = second compound 0.0316 µM, first compound 0.316 µM
[4] = second compound 0.0316 µM, first compound 1 µM
[5] = second compound 0.1 µM, first compound 0.0316 µM
[6] = second compound 0.1 µM, first compound 0.1 µM
[7] = second compound 0.1 µM, first compound 0.316 µM
[8] = second compound 0.1 µM, first compound 1 µM
[9] = second compound 0.316 µM, first compound 0.0316 µM
[10] = second compound 0.316 µM, first compound 0.1 µM
[11] = second compound 0.316 µM, first compound 0.316 µM
[12] = second compound 0.316 µM, first compound 1 µM
[13] = second compound 1 µM, first compound 0.0316 µM
[14] = second compound 1 µM, first compound 0.1 µM
[15] = second compound 1 µM, first compound 0.316 µM
[16] = second compound 1 µM, first compound 1 µM
[17] = second compound 3.16 µM, first compound 0.0316 µM
[18] = second compound 3.16 µM, first compound 0.1 µM
[19] = second compound 3.16 µM, first compound 0.316 µM
[20] = second compound 3.16 µM, first compound 1 µM
[21] = second compound 10 µM, first compound 0.0316 µM
[22] = second compound 10 µM, first compound 0.1 µM
[23] = second compound 10 µM, first compound 0.316 µM
[24] = second compound 10 µM, first compound 1 µM
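Also: spheroids exposed to compounds for 7 days before viability readout.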
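For viability, T/C in this document: luminescence signal used as surrogate for viable cell content; 100% = DMSO vehicle control viability.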

CC1COCCN1c1cc(-c2ccnn2C)c2ccnc(-c3ccn[nH]3)c2n1 (centres undefined) + Nc1ccc(C#CCN(C(=O)Cc2ncc(C(F)(F)F)cc2C(F)(F)F)c2ccc(F)cc2)nn1
IC50 (second compound 0.0316 µM): > 10000 nM
IC50 (second compound 0.1 µM): > 10000 nM
IC50 (second compound 0.316 µM): > 10000 nM
IC50 (second compound 1 µM): 6510 nM
IC50 (second compound 3.16 µM): > 10000 nM
IC50 (second compound 10 µM): > 10000 nM
viability, T/C [1]: 87.5%
viability, T/C [2]: 89.8%
viability, T/C [3]: 79.2%
viability, T/C [4]: 55.6%
viability, T/C (second compound 0.0316 µM, first compound 3.16 µM): 56.2%
viability, T/C (second compound 0.0316 µM, first compound 10 µM): 55.3%
viability, T/C [5]: 102%
viability, T/C [6]: 80.7%
viability, T/C [7]: 77.7%
viability, T/C [8]: 53.8%
viability, T/C (second compound 0.1 µM, first compound 3.16 µM): 57.6%
viability, T/C (second compound 0.1 µM, first compound 10 µM): 54.7%
viability, T/C [9]: 95.5%
viability, T/C [10]: 99.1%
viability, T/C [11]: 70.2%
viability, T/C [12]: 60.9%
viability, T/C (second compound 0.316 µM, first compound 3.16 µM): 51.7%
viability, T/C (second compound 0.316 µM, first compound 10 µM): 53.5%
viability, T/C [13]: 96.2%
viability, T/C [14]: 86.9%
viability, T/C [15]: 78.8%
viability, T/C [16]: 58.9%
viability, T/C (second compound 1 µM, first compound 3.16 µM): 58.5%
viability, T/C (second compound 1 µM, first compound 10 µM): 45.9%
viability, T/C [17]: 88.7%
viability, T/C [18]: 94.1%
viability, T/C [19]: 79.1%
viability, T/C [20]: 59.7%
viability, T/C (second compound 3.16 µM, first compound 3.16 µM): 49.3%
viability, T/C (second compound 3.16 µM, first compound 10 µM): 66.1%
viability, T/C [21]: 102%
viability, T/C [22]: 90.1%
viability, T/C [23]: 80%
viability, T/C [24]: 64.6%
viability, T/C (second compound 10 µM, first compound 3.16 µM): 55.9%
viability, T/C (second compound 10 µM, first compound 10 µM): 60.1%

CCc1c2c(nc3ccc(O)cc13)-c1cc3c(c(=O)n1C2)COC(=O)[C@]3(O)CC + Nc1ccc(C#CCN(C(=O)Cc2ncc(C(F)(F)F)cc2C(F)(F)F)c2ccc(F)cc2)nn1
IC50 (second compound 0.0316 µM): 143 nM
IC50 (second compound 0.1 µM): 66.2 nM
IC50 (second compound 0.316 µM): 119 nM
IC50 (second compound 1 µM): 114 nM
IC50 (second compound 3.16 µM): 79 nM
IC50 (second compound 10 µM): 173 nM
viability, T/C (second compound 0.0316 µM, first compound 0.00316 µM): 104%
viability, T/C (second compound 0.0316 µM, first compound 0.01 µM): 99.2%
viability, T/C [1]: 62.1%
viability, T/C [2]: 59.2%
viability, T/C [3]: 44.1%
viability, T/C [4]: 36.2%
viability, T/C (second compound 0.1 µM, first compound 0.00316 µM): 106%
viability, T/C (second compound 0.1 µM, first compound 0.01 µM): 102%
viability, T/C [5]: 60%
viability, T/C [6]: 48.7%
viability, T/C [7]: 50.9%
viability, T/C [8]: 30.2%
viability, T/C (second compound 0.316 µM, first compound 0.00316 µM): 114%
viability, T/C (second compound 0.316 µM, first compound 0.01 µM): 87.7%
viability, T/C [9]: 62.2%
viability, T/C [10]: 54.5%
viability, T/C [11]: 44.5%
viability, T/C [12]: 28.9%
viability, T/C (second compound 1 µM, first compound 0.00316 µM): 99.8%
viability, T/C (second compound 1 µM, first compound 0.01 µM): 85.2%
viability, T/C [13]: 66.4%
viability, T/C [14]: 51.5%
viability, T/C [15]: 41.7%
viability, T/C [16]: 39.9%
viability, T/C (second compound 3.16 µM, first compound 0.00316 µM): 94.5%
viability, T/C (second compound 3.16 µM, first compound 0.01 µM): 97.8%
viability, T/C [17]: 67.6%
viability, T/C [18]: 47.9%
viability, T/C [19]: 42%
viability, T/C [20]: 35.9%
viability, T/C (second compound 10 µM, first compound 0.00316 µM): 111%
viability, T/C (second compound 10 µM, first compound 0.01 µM): 94.5%
viability, T/C [21]: 66.8%
viability, T/C [22]: 55.8%
viability, T/C [23]: 47.4%
viability, T/C [24]: 34.9%
